Results taken from patent publication US11000604B2, “Reagent for site-selective bioconjugation of proteins or antibodies” (Research Foundation of the City University of New York, priority 2017, dated 2021).

How the values were obtained:
Type in all cases: physicochemical
[1] = Stability of PODS solutions in DMSO; settings: solution in DMSO, room temperature
Description: All intermediates were obtained in >95% purity using minimal equipment and simple procedures without chromatographic purifications. The methyl thioether 1 was obtained quantitatively via the methylation of the thiol with methyl iodide; unfortunately, we were not able to replace the use of the toxic methyl iodide with any safer reagent. The coupling between 1 and the carboxylic acid-bearing PEG chain was performed using EDCI as a coupling agent. Overnight reaction at room temperature led to the complete consumption of the starting material but also the formation of degradation products. It was possible to separate 2 from the two unidentified impurities by precipitating it with a mixture of ethyl acetate and cyclohexane. The oxidation of 2 was performed using the peracid mCPBA. This lead to the formation of the methylsulfone 3 with a yield of 90%. Finally, PODS was obtained from 3 after the quantitative deprotection of the terminal amine using a solution of trifluoroacetic acid in dichloromethane. Solutions of PODS in DMSO were stable at room temperature and have been kept at room temperature for 5 months without any noticeable signs of degradation.

[2] = Reaction of PODS with glutathione; settings: pH 7.5
Description: (§1) The reaction between PODS and Boc-L-cysteine was quantitative in less than 2 minutes at pH 7.5. See FIG. 3A, FIG. 3B and FIG. 3C. In a move toward a model closer to proteins and peptides, a tripeptide containing a central cysteine—glutathione—was reacted with PODS as well. Again, the conjugation reaction reached completion before the first measurement could be acquired (<3 min at pH 7.5).

[3] = Reaction of PODS with model thiol Boc-L-cysteine (with TCEP); settings: pH 7.5, TCEP
Description: In order to study the reactivity of PODS with thiols, Boc-L-cysteine was used as a model thiol in conjunction with the mild reducing agent tris(2-carboxyethyl)phosphine (TCEP), whose role was the reduction of any latent cystine species in solution (FIG. 2).
as §1

## CS(=O)(=O)c1nnc(-c2ccc(NC(=O)CCC(=O)NCCCOCCOCCOCCCN)cc2)o1 [PODS, N^1-(3-(2-(2-(3-Aminopropoxy)ethoxy)ethoxy)propyl)-N′-(4-(5-(methylsulfonyl)-1,3,4 oxadiazol-2-yl)phenyl)succinamide]
[1]
  time kept without any noticeable signs of degradation: ≥ 5 months
[2]
  time to completion of conjugation reaction with glutathione: < 3 min
[3]
  time to quantitative reaction with Boc-L-cysteine: less than 2 minutes
